Laboratory results as given in paper PMC6857051, “Proliferative regulation of alveolar epithelial type 2 progenitor cells by human Scnn1d gene” (Theranostics, 2019).

Key:
[1] = tested on: δ802- and γ-ENaC subunits; assay: Immunoblot of cleavage of tagged δ802- and γ-ENaC subunits in oocytes by serine proteases; assay type: biochemical, human; conditions: 10 μg/ml, 45 minutes at room temperature
Protocol: Figure 3 Activation of δ802-containing ENaC channels by serine proteases. (A) Activation of δ802βγ ENaC expressed in Xenopus oocytes by two-chain urokinase plasminogen activator (tc-uPA). ENaC activity was measured at the membrane potential of -100 mV at defined time points post incubation with 10 μg/ml tc-uPA. n = 9-15. mean ± s.e.m. * P<0.05 vs data at the zero minute (min). (B) Time course of stimulatory effects of plasmin on δ802βγ-ENaC activity. n=12. * P<0.05. (C) Identification of subunit responsible for plasmin activation. Fold of amiloride-sensitive current (ASI) of ENaC-associated current in the presence of plasmin over that in the absence of plasmin was computed for oocytes expressing δ802+β+γ (δβγ), δ802 alone (δ), δ802+β(δβ), and δ802+γ (δγ). n = 12-15. * P<0.05. (D) Inhibitory effects of α-13 peptide on δ802αβγ- (δαβγ) and αβγ-ENaC activity post treatment of plasmin and aprotinin. Currents (I) at -100 mV were compared in the absence of amiloride (basal, open bar), presence of α-13 peptide (α13, closed bar), and amiloride (amil, grey bar). n=5. * P<0.05 vs basal currents, & P < 0.05 vs those in the presence of α-13 peptide. (E) Fractions of α-13 sensitive currents in cells pre-treated with plasmin and aprotinin. n=8. Control, without pre-treatment. (F) Cleavage of V5-tagged δ802- and γ-ENaC subunits by serine proteases. NI, non-injected oocytes as negative controls for ENaC expression. Oocytes incubated with chymotrypsin (CT, 10 μg/ml), plasmin (PI, 10 μg/ml) for 45 minutes at room temperature. Cells treated with the same volume of saline (‑) were controls for serine proteases.

[2] = target: T1, δ802αβγ-ENaC (Homo sapiens, UniProt P51168+P51170); assay: Two-electrode voltage clamp of δ802αβγ-ENaC expressed in Xenopus oocytes; assay type: cell-based; conditions: oocytes pre-treated, currents at -100 mV, n=5, Figure 3D
T1 construct: We characterized full-length human δ802-ENaC expressed in both Xenopus oocytes and humanized transgenic mice; expressed in transfected cells; host or cells: Xenopus laevis oocytes injected with cRNA (pGEM HE vector)
T1 sequence (P51168 1-640): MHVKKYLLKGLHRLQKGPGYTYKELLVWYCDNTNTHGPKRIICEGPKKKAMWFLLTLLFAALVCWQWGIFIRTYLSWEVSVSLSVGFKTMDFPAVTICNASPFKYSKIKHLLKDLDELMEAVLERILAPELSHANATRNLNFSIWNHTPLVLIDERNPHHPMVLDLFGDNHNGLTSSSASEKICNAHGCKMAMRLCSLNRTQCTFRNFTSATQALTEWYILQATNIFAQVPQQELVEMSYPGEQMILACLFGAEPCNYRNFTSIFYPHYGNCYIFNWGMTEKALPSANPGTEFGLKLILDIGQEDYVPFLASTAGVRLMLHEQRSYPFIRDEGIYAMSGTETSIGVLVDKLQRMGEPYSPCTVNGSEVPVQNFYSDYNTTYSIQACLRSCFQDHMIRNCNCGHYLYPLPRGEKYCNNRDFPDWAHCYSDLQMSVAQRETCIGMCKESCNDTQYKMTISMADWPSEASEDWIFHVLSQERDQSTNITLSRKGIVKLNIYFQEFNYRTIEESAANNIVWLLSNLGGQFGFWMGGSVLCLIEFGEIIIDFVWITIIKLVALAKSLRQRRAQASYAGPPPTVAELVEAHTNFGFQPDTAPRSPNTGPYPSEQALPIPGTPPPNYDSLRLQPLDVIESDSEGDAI
T1 sequence (P51170 1-649): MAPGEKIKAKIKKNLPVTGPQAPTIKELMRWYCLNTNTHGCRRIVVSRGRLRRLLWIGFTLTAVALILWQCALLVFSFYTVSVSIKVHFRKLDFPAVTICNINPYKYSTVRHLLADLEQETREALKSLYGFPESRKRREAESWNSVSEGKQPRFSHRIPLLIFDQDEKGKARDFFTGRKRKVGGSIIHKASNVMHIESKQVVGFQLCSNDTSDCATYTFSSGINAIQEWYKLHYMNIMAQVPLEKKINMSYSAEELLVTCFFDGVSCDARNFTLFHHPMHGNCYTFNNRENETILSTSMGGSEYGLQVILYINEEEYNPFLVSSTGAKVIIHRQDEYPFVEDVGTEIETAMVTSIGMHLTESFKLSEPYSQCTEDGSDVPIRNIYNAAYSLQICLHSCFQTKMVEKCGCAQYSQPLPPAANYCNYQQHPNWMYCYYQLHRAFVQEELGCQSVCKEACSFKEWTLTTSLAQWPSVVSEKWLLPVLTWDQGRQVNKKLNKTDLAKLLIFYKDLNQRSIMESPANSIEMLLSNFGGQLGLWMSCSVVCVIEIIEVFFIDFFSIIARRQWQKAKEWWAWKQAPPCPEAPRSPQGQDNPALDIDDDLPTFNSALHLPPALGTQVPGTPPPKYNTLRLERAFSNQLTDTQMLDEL
Protocol: (§1) Cloning, in vitro transcription, and heterologous expression of δ802 ENaC and two-electrode voltage clamping assay. δ802 and other ENaC subunits were generated in human ENaC cDNAs cloned into a pGEM HE vector [4], [76]. cRNAs of human α, β, and γ ENaC were prepared as described previously. The stoichiometry of native ENaC complexes is unclear to date. Based on the studies in the last decade, several models have been proposed for αβγ ENaC channels: 1α1β1γ, 2α1β1γ, 3α3β3γ. Based on the EM structure of human αβγ ENaC [35], the currently acceptable model of human αβγ ENaC complexes is heterotrimeric (1α1β1γ). Thus we microinjected δ802:β:γ in a 1:1:1 subunit ratio. Oocytes were surgically removed from appropriately anesthetized adult female Xenopus laevis (Xenopus Express). Briefly, the ovarian tissue was removed from the frog under anesthesia by tricaine-S (Western Chemicals) through a small incision in the lower abdomen. Ovarian lobes were removed and digested in OR-2 calcium-free medium (in mM: 82.5 NaCl, 2.5 KCl, 1.0 MgCl2, 1.0 Na2HPO4, and 10.0 HEPES, pH 7.5) with the addition of 2 mg/ml collagenase (Roche, Indianapolis). Defolliculated oocytes were injected with ENaC cRNAs into the cytosol (25 ng per oocyte in 50 nl of RNase-free water) and incubated in regular OR-2 medium at 18°C. The two-electrode voltage-clamp technique was used to record whole-cell currents 48 h post injection. Oocytes were impaled with two electrodes filled with 3M KCl, having resistance of 0.5 - 2 MΩ. A TEV-200A voltage-clamp amplifier (Dagan) was used to clamp oocytes with concomitant recording of currents. Two reference electrodes were connected to the bath. The continuously perfused bathing solution was ND-96 medium (in mM: 96.0 NaCl, 1.0 MgCl2, 1.8 CaCl2, 2.5 KCl, and 5.0 HEPES, pH 7.5). Whole-cell currents were recorded as previously reported. Experiments were controlled by pCLAMP 10.7 software (Molecular Devices), and currents at -40 mV, -100 mV, and +80 mV were continuously monitored with data recorded at intervals of 10 sec. Data were sampled at the rate of 200 Hz and filtered at 50 Hz.

[3] = target: T2, human αβγ-ENaC (Homo sapiens, UniProt P37088+P51168+P51170); assay: Two-electrode voltage clamp of αβγ-ENaC expressed in Xenopus oocytes; assay type: cell-based; conditions: oocytes pre-treated, currents at -100 mV, n=5, Figure 3D
T2 construct: expressed in transfected cells; host or cells: Xenopus laevis oocytes injected with cRNA (pGEM HE vector)
T2 sequence (P37088 1-669): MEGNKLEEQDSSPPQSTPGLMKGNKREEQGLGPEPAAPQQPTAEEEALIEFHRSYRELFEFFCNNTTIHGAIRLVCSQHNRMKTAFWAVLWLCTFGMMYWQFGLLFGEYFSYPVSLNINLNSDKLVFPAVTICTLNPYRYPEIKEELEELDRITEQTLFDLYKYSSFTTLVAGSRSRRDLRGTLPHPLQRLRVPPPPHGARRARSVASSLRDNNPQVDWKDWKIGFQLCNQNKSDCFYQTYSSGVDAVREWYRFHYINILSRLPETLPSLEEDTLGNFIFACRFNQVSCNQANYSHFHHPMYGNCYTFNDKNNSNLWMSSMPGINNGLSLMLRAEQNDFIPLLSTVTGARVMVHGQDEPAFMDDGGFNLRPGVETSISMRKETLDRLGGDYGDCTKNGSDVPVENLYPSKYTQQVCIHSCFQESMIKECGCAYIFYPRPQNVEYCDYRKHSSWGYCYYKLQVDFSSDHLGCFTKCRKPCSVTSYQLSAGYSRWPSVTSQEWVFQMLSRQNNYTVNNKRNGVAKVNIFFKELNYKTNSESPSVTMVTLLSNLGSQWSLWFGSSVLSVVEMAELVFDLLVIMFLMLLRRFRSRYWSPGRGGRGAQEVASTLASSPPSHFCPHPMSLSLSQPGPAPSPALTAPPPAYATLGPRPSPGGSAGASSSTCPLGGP
T2 sequence (P51168 1-640): T1 sequence (P51168 1-640)
T2 sequence (P51170 1-649): T1 sequence (P51170 1-649)
Protocol: as §1

Row | Substance | cleavage of δ802 subunit [1] | effect of pre-treatment on δ802αβγ-ENaC activity [2] | effect of pre-treatment on αβγ-ENaC activity [3]
1 | chymotrypsin | Neither chymotrypsin nor plasmin nor endogenous furin cleaved the δ802 subunit |  | 
2 | aprotinin |  | did not alter the current amplitude significantly | did not alter the current amplitude significantly
